Assay results published in PubChem BioAssay AID743161 (Sanford-Burnham Center for Chemical Genomics, 2013).
“And” between values parts separate entries of the source, which are not always exact repeats. Equal entries are not always repeated. The source made the active and inactive calls.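 The calls were made as follows: active = compounds whose lipid-stain IC50 is at most a set limit, with nuclear-stain IC50 a set multiple higher; inactive = the rest.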

test system: H9c2 rat cardiomyoblasts, Nile Red TAG fluorescence, overnight; experiment: inhibitors of triacylglycerol buildup in H9c2 cells, dose response, cell-based, H9c2 rat cardiomyoblasts, Nile Red fluorescence, primary readout (AID 743161)

| Structure (SMILES) | IC50 |
| --- | --- |
| O=C(Nc1cccc2ncccc12)c1ccc(Cl)cc1 | > 50 µM (inactive) |
| COCCN1Cc2cccc(C(=O)Nc3cccc(Cl)c3Cl)c2C1=O | > 50 µM (inactive) |
| CCCC(=O)Nc1nc2ccc(NC(=O)c3ccccc3F)cc2s1 | 13.5 µM |
| COCCN1Cc2cccc(C(=O)Nc3cccc(Cl)c3)c2C1=O | > 50 µM (inactive) |
| Cc1ccccc1NC(=O)CSc1nc2ccc(Nc3nc(N4CCOCC4)nc(N4CCOCC4)n3)cc2s1 | 6.86 µM |
| COCCN1Cc2cccc(C(=O)Nc3cccc(C(=O)Nc4ccccc4OC)c3)c2C1=O | 5.75 µM |
| COCCN1Cc2cccc(C(=O)Nc3cccc(-c4nc5ccc(C(F)(F)F)cc5[nH]4)c3)c2C1=O | 0.832 µM |
| O=C(Nc1cccc(-c2nc3ccccc3[nH]2)c1)c1cccc2c1C(=O)N(CCc1ccccc1)C2 | 8.04 µM |
| CC(=O)Nc1cccc(-c2nc3ccccc3[nH]2)c1 | > 50 µM (inactive) |
| Cc1ccccc1NC(=O)CSc1nc(Nc2ccccc2)nc(N2CCOCC2)n1 | 15.3 µM (inactive) |
| COCCN1Cc2cccc(C(=O)Nc3ccc(-c4nc5ccccc5[nH]4)cc3)c2C1=O | 0.0525 µM |
| CCN(CC)S(=O)(=O)c1ccc(NC(=O)c2cccc3c2C(=O)N(CCOC)C3)cc1 | > 50 µM (inactive) |
| O=C(Nc1cccc(-c2nc3ccccc3[nH]2)c1)c1cccc2c1C(=O)N(CC1CC1)C2 | 1.53 µM |
| CCn1c(SCC(=O)Nc2nc(-c3ccc(C)cc3)cs2)nnc1-c1ccccc1O | 7.87 µM |
| O=C1COc2ccc(C(=O)CSc3nc4ccccc4c(=O)n3-c3ccc(Cl)c(Cl)c3)cc2N1 | 14.9 µM |
| O=C(CSc1nc2ccc(Nc3nc(N4CCOCC4)nc(N4CCOCC4)n3)cc2s1)Nc1ccccc1Cl | 7.85 µM |
| CCCCSc1nc2ccc(Nc3nc(N4CCOCC4)nc(N4CCOCC4)n3)cc2s1 | 7.11 µM |
| Cc1ccccc1OCCNc1cc(N2CC(C)NC(C)C2)ccc1[N+](=O)[O-] (centres undefined) | 11.3 µM |
| CCOC(=O)c1cc(-c2ccccc2)sc1NC(=O)C(C)N1C(=O)NC(C)(c2ccc(Cl)cc2)C1=O (centres undefined) | 8.38 µM |
| COc1cc2c(cc1OC)C(C)N(C(=O)c1cc3c(C)cc(C)cc3[nH]1)CC2 (centres undefined) | 18.2 µM (inactive) |
| CCOc1ccc(NC(=O)CN(C)C(=O)c2cc(-c3ccc(OC)cc3)nc3ccccc23)cc1OCC | 15.3 µM (inactive) |
| CCOc1ccc(CCNC(=O)CN2CCN(Cc3ccccc3C)C2=O)cc1OCC | 10.8 µM |
| O=C(CCC(=O)N1CCOc2ccc(Cl)cc21)NCCCN1CCC(Cc2ccccc2)CC1 | 12.6 µM |

| Structure (SMILES) | IC50 |
| --- | --- |
| O=C(CSc1nc2ccc(Nc3nc(N4CCOCC4)nc(N4CCOCC4)n3)cc2s1)NCc1ccco1 | 6.77 µM |
| COCCN1Cc2cccc(C(=O)Nc3cccc(C(C)=O)c3)c2C1=O | 17.5 µM (inactive) |
| O=C(Nc1cccc(-c2nc3ccccc3[nH]2)c1)c1cccc2c1C(=O)N(CCN1CCOCC1)C2 | 3.36 µM |
| CN(C)CCCn1c(SCC(=O)Nc2nc(-c3cccc(Br)c3)cs2)nc2ccccc2c1=O | 22.8 µM (inactive) |
| CSCCCN1Cc2cccc(C(=O)Nc3cccc(-c4nc5ccccc5[nH]4)c3)c2C1=O | 0.661 µM |
| Cc1ccc(-c2nc(NC(=O)c3cc(C(C)(C)C)nn3C)sc2C)cc1Cl | 4.26 µM |
| O=C(Nc1cccc(-c2nc3ccccc3[nH]2)c1)c1cccc2c1C(=O)N(CCOc1ccccc1)C2 | 1.01 µM |
| CC(C)CC(=O)Nc1cccc(-c2nc3ccccc3[nH]2)c1 | > 50 µM (inactive) |
| CCCN1Cc2cccc(C(=O)Nc3ccc(-c4nc5ccccc5[nH]4)cc3)c2C1=O | > 50 µM (inactive) |
| COCCN1Cc2cccc(C(=O)Nc3cccc(C(=O)Nc4ccccc4)c3)c2C1=O | 2.9 µM |
| Cc1ccc(Nc2nc(OC(C(F)(F)F)C(F)(F)F)nc(N3CCOCC3)n2)cc1 | 3.9 µM |
| O=C(Nc1cccc(-c2nc3ccccc3[nH]2)c1)c1ccccc1 | 32.8 µM (inactive) |
| COc1cc(NC(=O)c2cc([N+](=O)[O-])ccc2NC(=O)CN2CCN(c3ccccn3)CC2)cc(OC)c1 | 8.11 µM |
| Cc1ccc(-c2csc(NC(=O)CSc3nc4ccccc4c(=O)n3CCCN(C)C)n2)cc1 | 17.5 µM (inactive) |
| O=C(Nc1cccc(-c2nc3ccccc3[nH]2)c1)C1CCCC1 | 44.3 µM (inactive) |
| CCC(C)(C)NC(=O)C(c1ccc(C)cc1)N(Cc1ccco1)C(=O)CCC(=O)Nc1nccs1 (centres undefined) | 8.41 µM |
| Cc1cc(C)c2nc(-c3ccncc3)cc(C(=O)N3CCN(Cc4ccccc4Cl)CC3)c2c1 | 5.05 µM |
| COCCN1Cc2cccc(C(=O)Nc3ccc(S(=O)(=O)N4CCOCC4)cc3)c2C1=O | > 50 µM (inactive) |
| O=C(Nc1cccc(-c2nc3ccccc3[nH]2)c1)c1ccncc1 | > 50 µM (inactive) |
| Cc1cccc2c(C(=O)N3CCN(c4ccccc4)CC3)cc(-c3ccncc3)nc12 | 4.25 µM |
| COCCn1cnc2cccc(C(=O)Nc3cccc(-c4nc5ccccc5[nH]4)c3)c2c1=O | > 50 µM (inactive) |
| COCCN1Cc2cccc(C(=O)Nc3ccc(S(=O)(=O)N4CCCCC4)cc3)c2C1=O | > 50 µM (inactive) |
| COCCN1Cc2cccc(C(=O)Nc3cccc(-c4nc5ccccc5[nH]4)c3)c2C1=O | 1.19 µM and 1.25 µM and 1.68 µM |

| Structure (SMILES) | IC50 |
| --- | --- |
| COc1ccc(-c2csc(NC(=O)c3ccc(OCC(=O)N4CCOCC4)c(OC)c3)n2)cc1 | 0.662 µM |
| CCOCCN1Cc2cccc(C(=O)Nc3cccc(-c4nc5ccccc5[nH]4)c3)c2C1=O | 1.18 µM |
| COCCN1Cc2cccc(C(=O)Nc3ccc(CN4CCOCC4)cc3)c2C1=O | > 50 µM (inactive) |
| CCCCN1Cc2cccc(C(=O)Nc3cccc(-c4nc5ccccc5[nH]4)c3)c2C1=O | 0.982 µM |
| COc1ccc(CCN2Cc3cccc(C(=O)Nc4cccc(-c5nc6ccccc6[nH]5)c4)c3C2=O)cc1OC | 1.1 µM |
| CCC(C)(C)NC(=O)C(c1ccc(OC)cc1)N(Cc1cccs1)C(=O)CCC(=O)Nc1cc(C)on1 (centres undefined) | 5.88 µM |
| COCCN1Cc2cccc(C(=O)Nc3nc4ccccc4n3C)c2C1=O | > 50 µM (inactive) |
| COCCN1Cc2cccc(C(=O)Nc3cccc(-c4nc5ccc(C)cc5[nH]4)c3)c2C1=O | 1.31 µM |
| CCCC(=O)Nc1nc2ccc(NC(=O)c3c(F)c(F)c(OC)c(F)c3F)cc2s1 | 8.2 µM |
| COCCN1Cc2cccc(C(=O)Nc3cccc(-c4nc5ccc(Cl)cc5[nH]4)c3)c2C1=O | 1.42 µM |
| CCCN1Cc2cccc(C(=O)Nc3cccc(C(C)=O)c3)c2C1=O | > 50 µM (inactive) |
| COc1cccc(-c2cc(C(=O)Nc3ccc(N(C)C(C)=O)cc3)c3cc(Br)ccc3n2)c1 | 10.4 µM |
| COCCN1Cc2cccc(C(=O)Nc3ccc(C)cc3)c2C1=O | 19.3 µM (inactive) |
| COCCCN1Cc2cccc(C(=O)Nc3cccc(-c4nc5ccccc5[nH]4)c3)c2C1=O | 2.29 µM |
| CCOc1ccccc1NC(=O)c1cccc(NC(=O)c2ccco2)c1 | 12 µM |
| COc1ccccc1CCN1Cc2cccc(C(=O)Nc3cccc(-c4nc5ccccc5[nH]4)c3)c2C1=O | 1.07 µM |
| COCCN1Cc2cccc(C(=O)Nc3cccnc3)c2C1=O | > 50 µM (inactive) |
| O=[N+]([O-])c1ccc(Nc2nc(NC3CCCCC3)nc(N3CCCC3)n2)cc1 | 14 µM |
| CCCN1Cc2cccc(C(=O)Nc3ccc(C)cc3)c2C1=O | > 50 µM (inactive) |
| COCCN1Cc2cccc(C(=O)Nc3nc4ccccc4[nH]3)c2C1=O | > 50 µM (inactive) |
| CCOC(=O)c1cccc(NC(=O)c2cccc3c2C(=O)N(CCOC)C3)c1 | > 50 µM (inactive) |
| CCN(CC)S(=O)(=O)c1ccc(N2CCOCC2)c(NC(=O)c2[nH]c(C)c(C(C)=O)c2C)c1 | 11.3 µM |
| COCCN1Cc2cccc(C(=O)Nc3cccc(-c4nc5ccc(F)cc5[nH]4)c3)c2C1=O | 1.27 µM |
